# What was measured:
# Wild type C57BL/6J mice = assay: High-fat diet fed wild type mice treated with compounds; assay type: in vivo; details: for serum cholesterol levels / serum glucose levels: in a FXR dependent manner (WT versus KO); for amount of lipid in liver sections (oil red O): wild type mice, high-fat diet, versus vehicle
# Description: To reaffirm that the function of avermectin analogues on lipid metabolism is by directly targeting FXR signaling, we employed wild type mice and FXR gene knockout mice, both fed with high-fat diet, to study the FXR dependency of physiological effects of these avermectin analogues. […] The expression pattern of FXR target genes SHP, BSEP, solute carrier family 51 beta subunit (OSTβ) and AKR1B7 in primary hepatocytes from wild type mice and FXR gene knockout mice further confirmed the FXR-dependent manner of avermectin analogues (Supplementary Fig. S5).
# (§1) 10 weeks age KK-Ay mice and C57BL/6J, homozygous FXR deficient (FXR^–/–) mice were maintained under environmentally controlled conditions with free access to standard chow diet and water as described previously. Animal experiments were conducted in the barrier facility of the Laboratory Animal Center, Xiamen University, approved by the Institutional Animal Use and Care Committee of Xiamen University, China, and the methods were carried out in accordance with the approved guidelines. Mice were fed with high fat diet containing 60% fat, 20% protein and 20% carbohydrate (Research Diets, D12492, New Brunswick, USA), and the food intake were measured every second day. […] After 6 h fasting, mice were weighed and sacrificed. Livers were weighed and taken photos, and part of each liver was fixed in 4% paraformaldehyde. Liver histology characterization was analyzed by haematoxylin and eosin (H&E) staining with paraffin-embedded sections by standard procedures. Other tissues were collected and frozen in liquid nitrogen for use, and serums were collected to measure metabolite parameters.
# (§2) Fresh liver tissues were embedded in optimum cutting temperature compound (OCT) and cryosectioned. The sections were fixed in 4% paraformaldehyde in PBS, and were stained with 0.3% oil red O according to standard procedures.
# (§3) Serum glucose was analyzed using glucose oxidase method (Applygen, Beijing, China). Serum cholesterol and triglyceride were analyzed using Cholesterol Assay Kit and Triglyceride Assay Kit (Bioassay Systems, USA), respectively. Liver triglyceride was analyzed using Tissue triglyceride assay kit (Applygen, Beijing, China).
# KK-Ay mice = assay: High-fat diet fed KK-Ay mice treated 14 days (liver histology, metabolic parameters, GTT, ITT); assay type: in vivo; details: for insulin sensitivity (ITT) / glucose tolerance (GTT): KK-Ay mice treated 10 days; for insulin sensitivity (ITT): 1 U/kg insulin i.p.; for glucose tolerance (GTT): 1 g/kg glucose i.p.; for serum cholesterol level / serum triglyceride level / body weight / hepatic lipid / steatosis by H&E staining of liver sections / lipid accumulation by oil red O staining of liver sections / liver morphology (colour): KK-Ay mice; for serum cholesterol level / serum triglyceride level / body weight: 1.3 mg/kg i.p. 14 days; for body weight: versus vehicle, eprinomectin and moxidectin groups; for hepatic lipid / steatosis by H&E staining of liver sections / lipid accumulation by oil red O staining of liver sections / liver morphology (colour): high-fat diet, i.p. once daily 14 days, avermectin analogues 1.3 mg/kg, GW4064 30 mg/kg
# Method: To further confirm the lipid accumulation, we performed oil red O staining of the frozen liver sections (Fig. 2c).
# as §1, §2
# Mice treated with compounds for 10 days were fasted for 6 h with free access to water. For the glucose tolerance test (GTT), 1 g/kg of glucose was i.p. injected and blood glucose was measured with the Accu-Check Performa (Roche Applied Science, Mannheim, Germany) at 0, 30, 60, 90, 120,150 and 180 min. For the insulin tolerance test (ITT), 1 U/kg of recombinant human insulin (Novolin 30R; Novo Nordisk, Bagsvaerd, Denmark) was i.p. injected, and blood glucose was measured at 0, 30, 60, 120 and 150 min after insulin injection.
# as §3
# [1] = test system: other nuclear receptors tested; assay: Receptor-specific transactivation reporter assay in COS-7 cells; assay type: cell-based, human; details: 10 μM avermectins, Supplementary Fig. S3
# Method: 30 Receptor-specific ligand
# rifampicin; CAR, 5 μM CITCO. […] Luciferase activities
# independent experiments. *p<0.001 versus DMSO control.
# [2] = target: T1, FXR ligand binding domain (LBD) (Homo sapiens, UniProt Q96RI1); assay: AlphaScreen cofactor binding assay; assay type: biochemical; details: for coactivators recruitment by FXR (biotin-SRC1–2, biotin-SRC2–3): 0.5 μM compound, Fig. 4a
# T1 construct: made in house; host or cells: E. coli BL21 (DE3)
# T1 sequence (Q96RI1 262-486 limits assumed): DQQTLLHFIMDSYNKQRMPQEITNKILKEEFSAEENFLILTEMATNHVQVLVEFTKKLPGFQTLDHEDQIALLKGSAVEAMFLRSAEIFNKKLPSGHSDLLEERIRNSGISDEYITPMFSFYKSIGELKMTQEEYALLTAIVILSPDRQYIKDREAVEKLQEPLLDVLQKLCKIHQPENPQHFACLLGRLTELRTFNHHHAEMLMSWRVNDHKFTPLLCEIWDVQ
# Method: The binding of the cofactor peptide motifs to FXR LBD in response to ligands was determined by AlphaScreen assays using a hexahistidine detection kit from Perkins-Elmer (USA) as described before. The FXR LBD protein was purified as described previously.
# FXR A291W mutation = assay: Reporter assay with mutated FXR; assay type: cell-based; details: 1 μM, Fig. 8e
# FXR H447F mutation = assay: Reporter assay with mutated FXR; assay type: cell-based; details: 1 μM, Fig. 8e
# Description: For H447F mutation, the corresponding residue of histidine with a side chain of imidazole group was replaced by the nonpolar phenylalanine with a side chain of benzene ring (Fig. 8c).
# FXR = target: T2, FXR (Homo sapiens, UniProt Q96RI1); assay: Cell-based reporter assay, transient transfection of COS-7 cells (EcRE reporter); details: for transcriptional activity of FXR: 1 μM compounds, Fig. 4b, EcRE reporter
# T2 sequence (Q96RI1 1-472 isoform Q96RI1-2): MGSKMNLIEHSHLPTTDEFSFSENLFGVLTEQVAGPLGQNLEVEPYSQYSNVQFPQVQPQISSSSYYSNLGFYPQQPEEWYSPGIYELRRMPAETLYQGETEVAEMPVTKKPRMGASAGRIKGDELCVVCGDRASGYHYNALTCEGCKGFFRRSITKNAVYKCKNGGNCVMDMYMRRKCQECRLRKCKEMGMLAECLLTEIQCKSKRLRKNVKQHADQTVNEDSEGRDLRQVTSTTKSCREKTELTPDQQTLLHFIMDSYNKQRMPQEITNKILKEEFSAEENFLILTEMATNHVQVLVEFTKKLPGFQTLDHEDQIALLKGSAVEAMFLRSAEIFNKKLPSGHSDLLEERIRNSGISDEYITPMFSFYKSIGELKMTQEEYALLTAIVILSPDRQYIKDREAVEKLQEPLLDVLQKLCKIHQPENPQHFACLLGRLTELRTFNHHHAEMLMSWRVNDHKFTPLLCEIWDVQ
# Description: Since ligands can regulate the transcriptional activity of nuclear receptors by binding into their ligand binding pocket, we performed cell-based reporter assay to validate the results from AlphaScreen.
# COS-7 cells were cotransfected with plasmids enco ding full-length nuclear receptors and their cognate response reporters as follows: human FXR with EcRE- Luc, human LXR(α and β) with LXRE- luc; human VDR with VDRE-luc; Human RXRα with RXRE- luc; human PPARs (α, δ, and γ) with PPRE-Luc; human GR o r PR with the MMTV-Luc; hum an RARα or RARβ with βRE- Luc; human PXR and CAR with PBRE-luc. 5 h after transfection,
# were normalized to renilla activity co-transfected as an internal control.
# [3] = test system: genes related with lipid metabolism / FXR target genes; assay: Real-time PCR of hepatic mRNA levels in treated KK-Ay mice; assay type: in vivo; details: KK-Ay mice liver
# Method: as §1
# Total RNA was isolated using Tissue RNA kit (Omega Bio-Tek, GA). The first strand cDNA were obtained by TAKARA reverse transcription kit. Real-time quantitative PCR were performed on a CFX96™ Real-Time PCR Detection System (Bio-Rad) using SYBR Premix Ex TaqTM (TAKARA). Relative mRNA expression levels were normalized to actin levels.
# FXR LBD = test system: T3, FXR LBD; assay: Peptide profiling / peptide competition AlphaScreen assay; assay type: biochemical; details: 16 unlabelled peptides (20 μM) competing with biotin-SRC2-3; 1 μM compound
# T3 construct: made in house; host or cells: E. coli BL21 (DE3)
# Description: To determine whether there is a conformational difference of FXR with various avermectin analogues, we performed peptide-profiling experiments using a panel of 16 unlabelled peptides selected from both coactivators and corepressors to compete off the binding of the third LXXLL motif of SRC2 (SRC2–3) to FXR in response to the binding of avermectin analogues (Fig. 5).
# Values are the means ± SEM of three independent experiments.
# diabetic mice = details: cited from earlier work
SMILES,serum cholesterol levels (Wild type C57BL/6J mice),serum glucose levels (Wild type C57BL/6J mice),amount of lipid in liver sections (oil red O) (Wild type C57BL/6J mice),insulin sensitivity (ITT) (KK-Ay mice),glucose tolerance (GTT) (KK-Ay mice),serum cholesterol level (KK-Ay mice),serum triglyceride level (KK-Ay mice),body weight (KK-Ay mice),hepatic lipid / steatosis by H&E staining of liver sections (KK-Ay mice),lipid accumulation by oil red O staining of liver sections (KK-Ay mice),liver morphology (colour) (KK-Ay mice),impact on other nuclear receptors tested (transactivation) [1],"coactivators recruitment by FXR (biotin-SRC1–2, biotin-SRC2–3) [2]",transcriptional activity of A291W mutated FXR (FXR A291W mutation),hepatic expression of BSEP [3],hepatic expression of SHP [3],hepatic level of CYP8b1 [3],hepatic mRNA level of AKR1B7 [3],hepatic mRNA level of SCD1 [3],hepatic mRNA level of SREBP-1c [3],further results
CCC(C)C1OC2(C=CC1C)CC1CC(CC=C(C)C(OC3CC(OC)C(OC4CC(OC)C(O)C(C)O4)C(C)O3)C(C)C=CC=C3COC4C(O)C(C)=CC(C(=O)O1)C34O)O2 (centres unmarked) [abamectin],lowered,lowered,significantly reduced the amount of lipid,significantly improved,significantly improved,significantly decreased,significantly decreased,significantly lower,nearly completely reverse the liver from hepatic steatosis,dramatically reduced the lipid accumulation,much more fresh red tissue,no substantial impact,,,,,,,,,
CO[C@H]1C[C@H](O[C@H]2[C@H](C)O[C@@H](O[C@@H]3/C(C)=C/C[C@@H]4C[C@@H](C[C@]5(C=C[C@H](C)[C@@H](C6CCCCC6)O5)O4)OC(=O)[C@@H]4C=C(C)[C@@H](O)[C@H]5OC/C(=C\C=C\[C@@H]3C)[C@]54O)C[C@@H]2OC)O[C@@H](C)[C@@H]1O [doramectin],lowered,lowered,significantly reduced the amount of lipid,significantly improved,significantly improved,significantly decreased,significantly decreased,significantly lower,nearly completely reverse the liver from hepatic steatosis,dramatically reduced the lipid accumulation,much more fresh red tissue,no substantial impact,strongly promoted,abolished the transcriptional activity,induced,induced,decreased,dramatically induced,substantially decreased,substantially decreased,recruitment of nuclear receptor corepressor (NCoR)-2 by FXR ([2]; Fig. 4e): induced the recruitment; transcriptional activity of H447F mutated FXR (FXR H447F mutation): increased the FXR activity; transcriptional activity of FXR (FXR): selectively activated; ligand character for FXR (FXR; concluded from AlphaScreen and reporter assays): partial agonists; peptide profile of ligand-bound FXR (FXR LBD): identical peptide profiles as the ivermectin
CCC(C)C1OC2(CCC1C)CC1CC(CC=C(C)C(OC3CC(OC)C(OC4CC(OC)C(O)C(C)O4)C(C)O3)C(C)C=CC=C3COC4C(O)C(C)=CC(C(=O)O1)C34O)O2 (centres unmarked) [ivermectin],,,significantly reduced the amount of lipid,,,significantly decreased,significantly decreased,significantly lower,nearly completely reverse the liver from hepatic steatosis,dramatically reduced the lipid accumulation,much more fresh red tissue,,strongly promoted,abolished the transcriptional activity,induced,induced,decreased,dramatically induced,substantially decreased,substantially decreased,serum cholesterol level (diabetic mice): decreased; serum glucose level (diabetic mice): decreased
CO/N=C1\C[C@]2(C[C@@H]3C[C@@H](C/C=C(\C)C[C@@H](C)/C=C/C=C4\CO[C@@H]5[C@H](O)C(C)=C[C@@H](C(=O)O3)[C@]45O)O2)O[C@H](/C(C)=C/C(C)C)[C@H]1C [moxidectin],,,,,,did not,did not,,,,grease white,,failed to induce,,did not display these regulations,did not display these regulations,did not display these regulations,did not display these regulations,did not display these regulations,did not display these regulations,transcriptional activity of FXR (FXR): failed to activate
